# Publication PMC8774657, “Peptide-Mucin Binding and Biosimilar Mucus-Permeating Properties” (Gels, 2021)
# Where a SMILES comes first, the peptide text is derived from it. Where no end group is shown, it is not given here.
# Experiment: Biosimilar mucus-permeating assay, in vitro cell-free model
# Assay type: in vitro ADME
# Settings: peptide 1 mM, OPA method; for Mucus permeability (in words): cell-free biosimilar mucus model, PBS pH 7.2, 25 ℃, verbal grade; for Final cumulative mucus permeability at 240 min / Cumulative mucus permeability at 60 min: cell-free, biosimilar mucus (0.3% PAA, 5% mucin, 3.1% BSA, 0.6% lipid mixture, Tween 80) on 10 KDa centrifugal filter, 1 mL, PBS pH 7.2, 470× g, 25 ℃, mean ± SEM, at least three times in triplicate
# Protocol: An in vitro cell-free model was established in this study for the quantification of mucus-permeating property of peptides. Biosimilar mucus used in the model consisted of 0.3% (w/v) PAA, 5% (w/v) mucin, 3.1% (w/v) BSA, 0.6% (w/v) lipid mixture including 0.06% (w/v) linoleic acid, 0.36% (w/v) cholesterol, 0.18% (w/v) phosphatidylcholine, and Tween 80 (25% of lipid mixture, w/w). First, the lipid was mixed with Tween 80, whereafter PBS buffer with 150 mM NaCl (5 mM, pH 7.2) was slowly added under magnetic stirring (Cimarec, ThermoFisher Scientific, Waltham, MA USA). On the other hand, PAA was dissolved in PBS buffer prior to the addition of mucin under stirring, and pH adjusted to 7.0 using NaOH (1 M). After mixing the lipids and mucin suspension, BSA was added to finalize the biosimilar mucus and the pH was adjusted to 7.4. The mucus mixture was stored overnight at 4 ℃ before dialyzing (Fisherbrand Regenerated Cellulose Dialysis Tubing, MWCOs from 3500 to 14,000 Daltons) for 72 h against PBS buffer (5 mM, pH 7.2) containing 150 mM NaCl to remove unbound lipids and contaminating proteins from BSA. Mucus-permeating assay was conducted by firstly adding 3.8 mL of dialyzed mucus suspensions to the filter of the centrifugal unit (4 mL, 10 KDa cutoff, Amicon Ultra, Millipore Sigma) followed by centrifugation at 2935× g for 15 min to make the mucus settle down and completely cover the entire membrane before adding peptide solutions (1 mM, 1 mL) or 1 mL of PBS buffer as blank. Afterwards, the permeate during centrifugation at 25 ℃ and 470× g was collected every 15 min for 4 h. The peptide content in the permeate was measured using the OPA method. The mucus permeability of the peptides was quantified using Equation (2). (2) P=np−nb/nT×100 PP is the percentage permeability, np represents the permeated peptides (µmol), nb is the blank (µmol), and nT is the total loaded peptide amount (µmol).
Compound,Mucus permeability (in words),Final cumulative mucus permeability at 240 min [%],Cumulative mucus permeability at 60 min [%]
"CSCC[C@H](NC(=O)[C@@H](N)CCCCN)C(=O)N1CCC[C@H]1C(=O)N[C@H](C(=O)O)C(C)C [Pep5, KMPV] (H-KMPV-OH)",low mucus permeability,13 ± 2,–
"C[C@@H](O)[C@H](N)C(=O)N[C@@H](CC(N)=O)C(=O)NCC(=O)N[C@@H](CCC(N)=O)C(=O)O [Pep4, TNGQ] (H-TNGQ-OH)",high mucus permeability,142 ± 35,96 ± 30
"CSCC[C@H](NC(=O)[C@@H](N)Cc1ccc(O)cc1)C(=O)N[C@@H](CO)C(=O)N[C@H](C(=O)O)C(C)C [Pep3, YMSV] (H-YMSV-OH)",low mucus permeability,44 ± 12,–

# Second part, the compound after the results:
Mucus permeability (in words),Final cumulative mucus permeability at 240 min [%],Cumulative mucus permeability at 60 min [%],Compound
low mucus permeability,23 ± 6,–,"KIPAVF [Pep1, KIPAVF]"
low mucus permeability,51 ± 9,–,"QIGLF [Pep7, QIGLF]"
high mucus permeability,92 ± 27,40 ± 17,"CC(C)C[C@H](NC(=O)[C@H](CO)NC(=O)[C@H](C)NC(=O)[C@@H]1CCCN1)C(=O)O [Pep6, PASL] (H-PASL-OH)"
low mucus permeability,21 ± 5,–,"CSCC[C@H](N)C(=O)N[C@@H](C)C(=O)N[C@@H](CC(N)=O)C(=O)N[C@H](C(=O)O)[C@@H](C)O [Pep2, MANT] (H-MANT-OH)"
